Data set [1] is described as follows: Chemical stability of the compound at pH 6 at 10 uM after 18 hrs incubation at 65 degC. It is filed as physicochemical. The note with it: buffer.
Data set [2] is described as follows: Chemical stability of the compound at pH 10 at 10 uM after 18 hrs incubation at 65 degC. It is filed as physicochemical. The note with it: buffer.
Data set [3] in a line: Chemical stability of the compound at pH 1 at 10 uM after 18 hrs incubation at 65 degC. It is filed as physicochemical. The note with it: buffer.
The nature of data set [4]: Chemical stability of the compound at pH 4 at 10 uM after 18 hrs incubation at 65 degC. It is filed as physicochemical. The settings on record: buffer.
Data set [5] can be described thus: Chemical stability of the compound at pH 8 at 10 uM after 18 hrs incubation at 65 degC. It is filed as physicochemical. The note with it: buffer.
Data set [6] is described as follows: physchem. The note with it: aqueous phosphate buffer, pH 7.4.
The next data set in a line: in vitro. The note with it: human, liver microsomes. (In general: Microsomes from liver hold many membrane-bound enzymes, among them those of drug oxidation.)
A further data set concerns the target Cytochrome P450 3A4 (Homo sapiens, UniProt P08684). Briefly: Inhibition of CYP3A4 (unknown origin). In kind it is ADME.
In the next data set the target is T1, Cytochrome P450 1A2 (Homo sapiens, UniProt P05177).
T1 sequence (P05177 whole entry): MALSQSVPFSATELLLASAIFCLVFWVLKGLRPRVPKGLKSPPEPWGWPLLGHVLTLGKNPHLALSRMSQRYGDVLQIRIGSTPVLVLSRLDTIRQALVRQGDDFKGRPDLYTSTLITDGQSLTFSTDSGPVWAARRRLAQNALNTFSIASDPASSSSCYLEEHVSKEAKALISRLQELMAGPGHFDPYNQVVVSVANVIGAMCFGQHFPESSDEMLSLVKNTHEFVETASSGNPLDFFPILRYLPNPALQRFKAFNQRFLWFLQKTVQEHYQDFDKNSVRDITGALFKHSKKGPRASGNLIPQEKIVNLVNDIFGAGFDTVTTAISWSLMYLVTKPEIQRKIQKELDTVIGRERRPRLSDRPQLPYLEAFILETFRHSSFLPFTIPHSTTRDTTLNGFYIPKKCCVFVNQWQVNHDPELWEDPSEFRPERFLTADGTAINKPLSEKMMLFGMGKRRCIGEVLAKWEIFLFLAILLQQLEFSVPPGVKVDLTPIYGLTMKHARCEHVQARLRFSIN
The data set is described as follows: Inhibition of CYP1A2 (unknown origin). In kind it is ADME.

For the next data set, the target named is Cytochrome P450 2C9 (Homo sapiens, UniProt P11712). The data set is described as follows: Inhibition of CYP2C9 (unknown origin). In kind it is ADME.
Cytochrome P450 2C9, sequence (P11712 whole entry): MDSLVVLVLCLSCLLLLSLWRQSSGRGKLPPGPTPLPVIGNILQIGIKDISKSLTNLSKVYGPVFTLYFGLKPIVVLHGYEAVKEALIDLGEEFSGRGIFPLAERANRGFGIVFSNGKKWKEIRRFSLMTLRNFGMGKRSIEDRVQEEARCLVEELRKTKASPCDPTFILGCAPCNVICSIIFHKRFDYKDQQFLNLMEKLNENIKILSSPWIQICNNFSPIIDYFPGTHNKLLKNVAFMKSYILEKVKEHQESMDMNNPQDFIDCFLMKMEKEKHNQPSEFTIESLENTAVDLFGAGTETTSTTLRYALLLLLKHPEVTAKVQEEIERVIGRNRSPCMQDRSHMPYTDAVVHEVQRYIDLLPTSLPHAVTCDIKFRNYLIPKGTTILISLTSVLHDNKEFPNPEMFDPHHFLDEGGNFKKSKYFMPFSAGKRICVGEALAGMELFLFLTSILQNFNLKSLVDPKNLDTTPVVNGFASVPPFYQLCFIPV
The target of a further data set is Cytochrome P450 2C19 (Homo sapiens, UniProt P33261). The data set is described as follows: Inhibition of CYP2C19 (unknown origin). It is filed as ADME.
Cytochrome P450 2C19, sequence (P33261 whole entry): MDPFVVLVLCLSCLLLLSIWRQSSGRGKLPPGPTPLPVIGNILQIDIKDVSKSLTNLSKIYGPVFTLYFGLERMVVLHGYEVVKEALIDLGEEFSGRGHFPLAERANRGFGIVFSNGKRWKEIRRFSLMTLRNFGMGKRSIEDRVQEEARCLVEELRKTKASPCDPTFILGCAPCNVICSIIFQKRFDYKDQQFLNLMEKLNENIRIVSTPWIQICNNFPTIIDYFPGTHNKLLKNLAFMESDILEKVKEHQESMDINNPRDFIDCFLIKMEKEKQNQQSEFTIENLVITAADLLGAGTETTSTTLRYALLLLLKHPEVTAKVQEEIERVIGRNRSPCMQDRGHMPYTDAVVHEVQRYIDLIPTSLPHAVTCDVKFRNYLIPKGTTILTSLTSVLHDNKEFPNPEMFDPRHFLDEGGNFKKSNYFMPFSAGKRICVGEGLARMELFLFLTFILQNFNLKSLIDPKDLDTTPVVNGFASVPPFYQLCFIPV
The next data set deals with Cytochrome P450 2D6 (Homo sapiens, UniProt P10635). The data set is described as follows: Inhibition of CYP2D6 (unknown origin). It is filed as ADME.
Cytochrome P450 2D6, sequence (P10635 whole entry): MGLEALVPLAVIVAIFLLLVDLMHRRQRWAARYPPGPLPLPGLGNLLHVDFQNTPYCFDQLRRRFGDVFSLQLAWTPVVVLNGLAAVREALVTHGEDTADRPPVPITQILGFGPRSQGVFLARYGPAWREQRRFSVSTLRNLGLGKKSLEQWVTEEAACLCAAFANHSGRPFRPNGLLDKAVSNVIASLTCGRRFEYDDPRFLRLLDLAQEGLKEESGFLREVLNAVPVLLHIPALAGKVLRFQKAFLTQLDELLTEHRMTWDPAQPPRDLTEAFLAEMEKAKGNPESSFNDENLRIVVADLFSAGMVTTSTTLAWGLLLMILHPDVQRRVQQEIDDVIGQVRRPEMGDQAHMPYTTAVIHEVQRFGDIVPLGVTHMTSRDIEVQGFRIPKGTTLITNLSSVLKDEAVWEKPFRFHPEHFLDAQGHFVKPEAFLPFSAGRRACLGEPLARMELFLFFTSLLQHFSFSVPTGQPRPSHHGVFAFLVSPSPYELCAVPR
Data set [7] deals with Voltage-gated inwardly rectifying potassium channel KCNH2 (Homo sapiens, UniProt Q12809). The data set is described as follows: Inhibition of human ERG.
Voltage-gated inwardly rectifying potassium channel KCNH2, sequence (Q12809 whole entry): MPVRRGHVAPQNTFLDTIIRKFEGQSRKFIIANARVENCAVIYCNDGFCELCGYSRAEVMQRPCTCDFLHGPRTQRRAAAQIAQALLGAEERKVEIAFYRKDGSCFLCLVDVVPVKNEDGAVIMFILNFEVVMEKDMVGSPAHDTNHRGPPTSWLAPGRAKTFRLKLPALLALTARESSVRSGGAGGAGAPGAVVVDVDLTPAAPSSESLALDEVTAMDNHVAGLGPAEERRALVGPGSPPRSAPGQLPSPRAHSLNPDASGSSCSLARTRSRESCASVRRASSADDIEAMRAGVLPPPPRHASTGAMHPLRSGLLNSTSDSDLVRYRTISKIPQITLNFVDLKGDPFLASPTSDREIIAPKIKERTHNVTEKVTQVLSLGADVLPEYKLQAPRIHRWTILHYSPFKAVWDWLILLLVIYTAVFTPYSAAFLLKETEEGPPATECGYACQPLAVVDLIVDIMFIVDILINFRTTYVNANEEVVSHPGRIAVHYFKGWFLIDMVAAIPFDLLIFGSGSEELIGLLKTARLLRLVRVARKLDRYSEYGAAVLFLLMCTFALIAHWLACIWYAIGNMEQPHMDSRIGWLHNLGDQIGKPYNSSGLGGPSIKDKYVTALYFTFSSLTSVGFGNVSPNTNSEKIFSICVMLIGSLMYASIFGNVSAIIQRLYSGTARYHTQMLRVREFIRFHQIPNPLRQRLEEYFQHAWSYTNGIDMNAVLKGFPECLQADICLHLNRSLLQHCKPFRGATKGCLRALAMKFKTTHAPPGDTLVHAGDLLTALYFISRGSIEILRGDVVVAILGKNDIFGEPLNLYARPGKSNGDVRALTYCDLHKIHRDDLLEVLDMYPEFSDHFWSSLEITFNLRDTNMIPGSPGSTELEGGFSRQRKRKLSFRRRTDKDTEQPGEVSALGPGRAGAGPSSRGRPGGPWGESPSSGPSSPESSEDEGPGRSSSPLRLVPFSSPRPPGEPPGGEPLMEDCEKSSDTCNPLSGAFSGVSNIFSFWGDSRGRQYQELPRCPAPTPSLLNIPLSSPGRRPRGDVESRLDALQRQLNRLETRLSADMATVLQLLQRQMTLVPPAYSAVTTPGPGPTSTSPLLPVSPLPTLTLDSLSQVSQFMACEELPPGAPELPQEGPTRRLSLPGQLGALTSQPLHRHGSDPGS
The target in data set [8] is T2, Glucose-dependent insulinotropic receptor (Mus musculus, UniProt Q7TQP3).
T2 sequence (Q7TQP3 whole entry): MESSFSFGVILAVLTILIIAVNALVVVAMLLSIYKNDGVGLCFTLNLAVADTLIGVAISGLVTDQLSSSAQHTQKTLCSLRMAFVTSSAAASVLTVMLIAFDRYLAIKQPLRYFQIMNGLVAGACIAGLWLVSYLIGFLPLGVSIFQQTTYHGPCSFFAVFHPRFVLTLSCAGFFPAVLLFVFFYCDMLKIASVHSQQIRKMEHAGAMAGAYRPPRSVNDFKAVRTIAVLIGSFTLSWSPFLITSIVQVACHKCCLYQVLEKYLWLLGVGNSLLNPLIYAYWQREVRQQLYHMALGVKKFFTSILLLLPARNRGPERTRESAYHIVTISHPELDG
The data set is described as follows: Agonist activity at mouse GPR119 transfected in HEK293 cells assessed as cAMP accumulation after 45 mins incubation by HTRF assay. It is filed as functional, cell-based. A general note: Changes in cAMP serve as a functional read-out for many G protein-coupled receptors.

Data set [9] deals with T3, Glucose-dependent insulinotropic receptor (Homo sapiens, UniProt Q8TDV5).
T3 sequence (Q8TDV5 whole entry): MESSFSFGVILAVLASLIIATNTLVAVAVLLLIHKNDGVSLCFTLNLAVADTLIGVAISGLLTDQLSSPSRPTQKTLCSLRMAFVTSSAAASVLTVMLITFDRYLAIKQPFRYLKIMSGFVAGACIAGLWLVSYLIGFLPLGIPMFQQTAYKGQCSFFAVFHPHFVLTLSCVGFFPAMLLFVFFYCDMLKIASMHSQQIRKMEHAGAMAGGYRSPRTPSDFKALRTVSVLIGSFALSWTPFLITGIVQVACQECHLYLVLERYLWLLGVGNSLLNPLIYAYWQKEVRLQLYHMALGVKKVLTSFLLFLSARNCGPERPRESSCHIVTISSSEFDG
Briefly: Agonist activity at human GPR119 transfected in HEK293 cells assessed as cAMP accumulation after 45 mins incubation by HTRF assay. In kind it is functional, cell-based.

Data set [10] can be described thus: physchem. The settings on record: octanol/phosphate buffer, pH 7.4.
Data set [11] is described as follows: Apparent permeability across apical to basolateral side of human Caco2 cells. In kind it is ADME, cell-based. The note with it: Caco-2. In general terms: Caco-2 cells form a polarised layer with tight junctions and transporters.
Data set [12] is described as follows: Apparent permeability across basolateral to apical side of human Caco2 cells. In kind it is ADME, cell-based. The settings on record: Caco-2.
Data set [13] in a line: Fraction unbound in mouse plasma. In kind it is ADME, cell-free.
Data set [14] in a line: Fraction unbound in rat plasma. In kind it is ADME, cell-free.

pEC50: −log10 of the molar value. Converted amounts (≈) assume the structure as drawn.

For orientation: half-life means how long it takes for the measured level to halve. Low values mean rapid decline, high ones slow decline. For orientation: solubility means the concentration that dissolves in the medium under given conditions. Higher therefore signals much dissolved substance. In general, microsomal CLint refers to the rate of metabolic loss divided by the concentration. One may read the pEC50 as the EC50 on a negative log10 scale, so that one unit is a factor of ten. A word on the logD: it is the decadic logarithm of the distribution of all forms, ionised or not, between an organic phase and buffer at a given pH. As a reminder, the Papp A→B is how fast a substance crosses the layer from the apical side. One may read the Papp B→A as how fast a substance crosses the layer from the basolateral side. Broadly, the fraction unbound is the share of the substance not bound to proteins or other matrix. Read a high fraction unbound as weak binding.

Cytochrome P450 3A4, sequence (P08684 whole entry): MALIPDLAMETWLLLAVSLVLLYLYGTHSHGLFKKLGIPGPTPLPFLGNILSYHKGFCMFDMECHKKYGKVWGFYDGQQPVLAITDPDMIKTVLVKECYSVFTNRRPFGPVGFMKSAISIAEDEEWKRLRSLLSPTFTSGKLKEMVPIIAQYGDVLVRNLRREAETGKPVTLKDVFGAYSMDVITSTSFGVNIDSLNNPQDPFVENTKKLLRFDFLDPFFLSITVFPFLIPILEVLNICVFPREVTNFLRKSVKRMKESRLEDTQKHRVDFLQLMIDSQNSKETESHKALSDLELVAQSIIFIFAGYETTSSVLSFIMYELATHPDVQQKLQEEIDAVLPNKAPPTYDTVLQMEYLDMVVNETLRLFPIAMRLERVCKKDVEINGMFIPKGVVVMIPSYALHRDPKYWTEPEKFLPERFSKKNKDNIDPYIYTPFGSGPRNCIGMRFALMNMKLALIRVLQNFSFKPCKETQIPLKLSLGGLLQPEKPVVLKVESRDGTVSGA

In the case of `C[C@@H]1CN(c2nnc(C(F)(F)F)o2)CCN1c1ncc(OCc2ccncc2C#N)cn1`, the half-life at 10 µM in data set [1] is over 240 h; in [2] it was 13.4 h; in data set [3] it was 10.8 h; in data set [4], over 240 h; in data set [5] it was over 240 h.
In the case of `CC(C)c1nc(N2CCN(c3ncc(OCc4ccncc4C#N)cn3)[C@H](C)C2)no1`, the solubility at 24 h in the data set “physchem [6]” is 6 µM (≈ 2.52 µg/mL). Moreover, the microsomal CLint in “in vitro” came to 23 µL/min/mg. Moreover, the INH on Cytochrome P450 3A4 was over 25 µM; on Cytochrome P450 1A2, over 25 µM; on Cytochrome P450 2C9, over 25 µM; at Cytochrome P450 2C19 it was over 25 µM; on Cytochrome P450 2D6, over 25 µM; in [7], 10 µM.
Regarding `N#Cc1cnccc1COc1cnc(N2CCN(C(=O)OC3CCOC3)CC2)nc1` (racemic), the solubility at 24 h in “physchem [6]” turned out to be 180 µM (≈ 73.9 µg/mL).
Regarding `C[C@@H]1CN(C(=O)OC2CCOCC2)CCN1c1ncc(OCc2ccncc2C#N)cn1`, in the data set “physchem [6]”, the solubility at 24 h came out at 110 µM (≈ 48.2 µg/mL). Further, the pEC50 in data set [8] was under 5.10; in [9], 6.20. The microsomal CLint in the data set “in vitro” came to 37 µL/min/mg. In the data set “physchem [10]”, this molecule yielded a logD of 2.2.
In the case of `C[C@@H]1CN(C(=O)OC2COC2)CCN1c1ncc(OCc2ccncc2C#N)cn1`, the solubility at 24 h in “physchem [6]” is over 2200 µM. Also, the intrinsic metabolic clearance (microsomal CLint) in the data set “in vitro” is 5 µL/min/mg. The molecule also had a logD in the data set “physchem [10]” of 1.6.
Turning to `CC(C)C1(OC(=O)N2CCN(c3ncc(OCc4ccncc4C#N)cn3)[C@H](C)C2)COC1`, the negative-log EC50 (pEC50) in data set [8] is 6.30; in data set [9] it was 6.70. Moreover, the microsomal CLint in the data set “in vitro” was 308 µL/min/mg.
In turn, `C[C@@H]1CN(c2noc(C(C)(C)O)n2)CCN1c1ncc(OCc2ccncc2C#N)cn1` displayed a solubility at 24 h in the data set “physchem [6]” of 8 µM (≈ 3.49 µg/mL). Moreover, the negative-log EC50 (pEC50) in data set [8] and in data set [9] was 6.20 throughout. In addition, the microsomal CLint in “in vitro” came out at 14 µL/min/mg. In addition, in “physchem [10]”, the logD came out at 2.4.
In the data set “physchem [6]”, `C[C@@H]1CN(c2noc(C3COCCO3)n2)CCN1c1ncc(OCc2ccncc2C#N)cn1` (some centres undefined) yielded a solubility at 24 h of 30 µM (≈ 13.9 µg/mL). The negative-log EC50 (pEC50) was 6.20 in [8] and 7.00 in [9]. Also, the microsomal CLint in the data set “in vitro” amounted to 26 µL/min/mg. Also, in the data set “physchem [10]”, the log distribution coefficient (logD) was determined as 2.3.
The molecule `C[C@@H]1CN(C(=O)OC2(C(F)(F)F)CCOC2)CCN1c1ncc(OCc2ccncc2C#N)cn1` (some centres undefined) gave a solubility at 24 h in “physchem [6]” of 34 µM (≈ 16.7 µg/mL). The microsomal CLint in the data set “in vitro” was determined as 107 µL/min/mg. For the same molecule, the logD in “physchem [10]” came out at 3.1.
In the case of `C[C@@H]1CN(C(=O)OC2(C(F)(F)F)COC2)CCN1c1ncc(OCc2ccncc2C#N)cn1`, the half-life at 10 µM in [1] was over 240 h; in [2], 0.96 h; in data set [3], 9.84 h; in data set [4] it was over 240 h; in data set [5], over 240 h. Further, in “physchem [6]”, the solubility at 24 h was 110 µM (≈ 52.6 µg/mL). Moreover, the results for the pEC50 in data set [8] and in data set [9] were 6.80 and 7.70, respectively. In addition, the apparent permeability from apical to basolateral (Papp A→B) in [11] worked out at 16 ×10⁻⁶ cm/s. Moreover, the microsomal CLint in “in vitro” worked out at 44 µL/min/mg. Besides, the INH on Cytochrome P450 3A4 was over 25 µM; on Cytochrome P450 1A2, over 25 µM; at Cytochrome P450 2C9, over 25 µM; on Cytochrome P450 2C19, over 25 µM; at Cytochrome P450 2D6 it was over 25 µM; in data set [7] it was 12 µM. In addition, in the data set “physchem [10]”, the logD stood at 2.5. For the same molecule, the Papp B→A in [12] was 9 ×10⁻⁶ cm/s. Further, the unbound share (fraction unbound) is 0.081 in [13] and 0.047 in data set [14].
Molecule `C[C@@H]1CN(c2noc(C3(C)COC3)n2)CCN1c1ncc(OCc2ccncc2C#N)cn1` had a solubility at 24 h in the data set “physchem [6]” of 59 µM (≈ 26.5 µg/mL). In addition, the negative-log EC50 (pEC50) was 7.00 in data set [8] and 7.20 in data set [9]. Also, the intrinsic clearance (microsomal CLint) in “in vitro” worked out at 43 µL/min/mg. Moreover, in the data set “physchem [10]”, the log distribution coefficient (logD) worked out at 3.
On to `CC(C)(C)OC(=O)N1CCN(c2ncc(OCc3ccc(S(C)(=O)=O)cc3)cn2)CC1`, for which the half-life at 10 µM in data set [1] was 2.88 h; in data set [2], under 0.144 h; in [3], under 1.8 h; in data set [4] it was 1.44 h; in [5], 2.64 h. Also, the solubility at 24 h in the data set “physchem [6]” is 0.03 µM (≈ 0.0135 µg/mL).
In the data set “physchem [6]”, `C[C@@H]1CN(C(=O)OC2(C)COC2)CCN1c1ncc(OCc2ccncc2C#N)cn1` gave a solubility at 24 h of over 860 µM. The pEC50 in [8] was 6.20; in data set [9] it was 6.70. Further, in “in vitro”, the intrinsic metabolic clearance (microsomal CLint) worked out at 23 µL/min/mg.
In “in vitro”, `C[C@@H]1CN(C(=O)OC(C)(C)C)CCN1c1ncc(OCc2ccncc2C#N)cn1` registered a microsomal CLint of 43 µL/min/mg.

Source of the values: ChEMBL document CHEMBL3217541, “Optimisation of aqueous solubility in a series of G protein coupled receptor 119 (GPR119) agonists” (Medchemcomm, 2013).
